Assay results reported in ChEMBL document CHEMBL5212743, “Selectivity Literature for EUbOPEN Chemogenomics Library wave 3” (2023).

Tests used:
[1] = target: T1, Gamma-aminobutyric acid receptor subunit alpha-1 (Homo sapiens, UniProt P14867); test: Selectivity interaction (GPCR panel (PDSP screen)) EUB0000301b GABRA1
T1 sequence (P14867 whole entry): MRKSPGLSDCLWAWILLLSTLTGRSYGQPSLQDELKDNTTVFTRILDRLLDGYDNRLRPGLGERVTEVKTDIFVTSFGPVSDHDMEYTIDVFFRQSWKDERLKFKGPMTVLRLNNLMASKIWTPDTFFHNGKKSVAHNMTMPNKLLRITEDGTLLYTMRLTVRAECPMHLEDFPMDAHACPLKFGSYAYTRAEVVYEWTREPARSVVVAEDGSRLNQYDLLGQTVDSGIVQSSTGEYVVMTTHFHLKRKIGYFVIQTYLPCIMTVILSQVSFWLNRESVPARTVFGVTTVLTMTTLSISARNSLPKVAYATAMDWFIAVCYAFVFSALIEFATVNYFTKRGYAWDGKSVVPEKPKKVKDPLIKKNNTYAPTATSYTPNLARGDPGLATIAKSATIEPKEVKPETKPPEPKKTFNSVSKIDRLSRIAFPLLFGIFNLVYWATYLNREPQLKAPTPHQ

[2] = target: eIF-2-alpha kinase GCN2 (Homo sapiens) (UniProt Q9P2K8); test: Selectivity interaction (KinomeScan (DiscoverX)) EUB0000301b EIF2AK4; conditions: at 1 µM
[3] = target: Cyclin-dependent kinase 8 (Homo sapiens) (UniProt P49336); test: Selectivity interaction (KinomeScan (DiscoverX)) EUB0000301b CDK8; conditions: at 1 µM
[4] = target: T2, Sodium-dependent dopamine transporter (Homo sapiens, UniProt Q01959); test: Selectivity interaction (GPCR panel (PDSP screen)) EUB0000541a SLC6A3
[5] = target: Serine/threonine-protein kinase 38-like (Homo sapiens, UniProt Q9Y2H1); test: Selectivity interaction (KinomeScan (DiscoverX)) EUB0000310b STK38L
[6] = target: STE20/SPS1-related proline-alanine-rich protein kinase (Homo sapiens) (UniProt Q9UEW8); test: Selectivity interaction (KinomeScan (DiscoverX)) EUB0000310b STK39
[7] = target: Interferon-induced, double-stranded RNA-activated protein kinase (Homo sapiens) (UniProt P19525); test: Selectivity interaction (KinomeScan (DiscoverX)) EUB0000310b EIF2AK2
[8] = target: Sigma intracellular receptor 2 (Homo sapiens, UniProt Q5BJF2); test: Selectivity interaction (GPCR panel (PDSP screen)) EUB0000310b TMEM97
[9] = target: Voltage-dependent L-type calcium channel subunit alpha-1C (Homo sapiens, UniProt Q13936); test: Selectivity interaction (Eurofins Panlabs panel (receptors, ion channel, and other enzymes)) EUB0000310b CACNA1C; conditions: at 10 µM
[10] = target: SRSF protein kinase 1 (Homo sapiens) (UniProt Q96SB4); test: Selectivity interaction (KinomeScan (DiscoverX)) EUB0000727a SRPK1; conditions: at 100 nM
[11] = target: Serine/threonine-protein kinase PAK 2 (Homo sapiens) (UniProt Q13177); test: Selectivity interaction (KinomeScan (DiscoverX)) EUB0000727a PAK2
D(1B) dopamine receptor [12] = target: T3, D(1B) dopamine receptor (Homo sapiens, UniProt P21918); test: Selectivity interaction (GPCR panel (PDSP screen)) EUB0000727a DRD5
[13] = target: Serine/threonine-protein kinase mTOR (Homo sapiens) (UniProt P42345); test: Selectivity interaction (KinomeScan (DiscoverX)) EUB0000727a MTOR; conditions: at 100 nM
[14] = target: Dual specificity mitogen-activated protein kinase kinase 2 (Homo sapiens, UniProt P36507); test: Selectivity interaction (Kinase panel (enzymatic assay)) EUB0000684a MAP2K2
[15] = target: Dual specificity mitogen-activated protein kinase kinase 1 (Homo sapiens, UniProt Q02750); test: Selectivity interaction (Kinase panel (enzymatic assay)) EUB0000684a MAP2K1
[16] = target: Rho-associated protein kinase 1 (Homo sapiens) (UniProt Q13464); test: Selectivity interaction (KinomeScan (DiscoverX)) EUB0000297b ROCK1; conditions: at 1 µM
[17] = target: Dual specificity tyrosine-phosphorylation-regulated kinase 1B (Homo sapiens, UniProt Q9Y463); test: Selectivity interaction (KinomeScan (DiscoverX)) EUB0000297b DYRK1B; conditions: at 1 µM
[18] = target: T1, Gamma-aminobutyric acid receptor subunit alpha-1; test: Selectivity interaction (GPCR panel (PDSP screen)) EUB0000297b GABRA1
[19] = target: T4, Death-associated protein kinase 3 (Homo sapiens, UniProt O43293); test: Selectivity interaction (KinomeScan (DiscoverX, competition-binding assay)) EUB0001135a DAPK3
[20] = target: T4, Death-associated protein kinase 3; test: Selectivity interaction (KinomeScan (DiscoverX)) EUB0001135a DAPK3; conditions: at 1 µM
[21] = target: Beta-3 adrenergic receptor (Homo sapiens, UniProt P13945); test: Selectivity interaction (GPCR panel (PDSP screen)) EUB0001135a ADRB3; conditions: at 10 µM
Histamine H1 receptor = Histamine H1 receptor (Homo sapiens, UniProt P35367); test: Selectivity interaction (GPCR panel (PDSP screen)) EUB0001135a HRH1; conditions: at 10 µM
[22] = target: T5, G protein-coupled receptor kinase 3 (Homo sapiens) (UniProt P35626); test: Selectivity interaction (KinomeScan (DiscoverX)) EUB0001135a ADRBK2; conditions: at 1 µM
T5 sequence (whole entry): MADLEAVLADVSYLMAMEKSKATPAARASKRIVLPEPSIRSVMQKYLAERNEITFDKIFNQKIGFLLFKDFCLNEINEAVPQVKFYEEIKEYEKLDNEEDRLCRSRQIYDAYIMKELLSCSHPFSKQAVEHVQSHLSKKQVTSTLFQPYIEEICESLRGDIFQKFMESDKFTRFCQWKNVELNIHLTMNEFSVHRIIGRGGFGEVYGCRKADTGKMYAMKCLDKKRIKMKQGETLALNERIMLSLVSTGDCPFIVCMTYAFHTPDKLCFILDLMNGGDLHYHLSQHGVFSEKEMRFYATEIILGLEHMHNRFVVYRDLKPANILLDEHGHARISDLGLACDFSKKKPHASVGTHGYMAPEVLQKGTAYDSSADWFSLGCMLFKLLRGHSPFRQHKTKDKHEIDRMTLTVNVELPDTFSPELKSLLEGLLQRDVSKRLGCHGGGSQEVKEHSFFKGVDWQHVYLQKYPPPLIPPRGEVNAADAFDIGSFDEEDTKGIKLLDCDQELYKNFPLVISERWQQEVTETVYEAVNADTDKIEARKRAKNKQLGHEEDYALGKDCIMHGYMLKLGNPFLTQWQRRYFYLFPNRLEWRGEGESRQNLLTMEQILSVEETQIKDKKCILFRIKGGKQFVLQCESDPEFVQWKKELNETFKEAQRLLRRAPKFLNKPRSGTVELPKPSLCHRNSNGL

[23] = target: G protein-coupled receptor kinase 3 (Homo sapiens, UniProt P35626); test: Selectivity interaction (KinomeScan (DiscoverX, competition-binding assay)) EUB0001135a ADRBK2
[24] = target: Transcription initiation factor TFIID subunit 1 (Homo sapiens, UniProt P21675); test: Selectivity interaction (BRD panel (HTRF assay)) EUB0000007b TAF1
[25] = target: Phosphatidylinositol 3-kinase C2 domain-containing subunit gamma (Homo sapiens) (UniProt O75747); test: Selectivity interaction (KinomeScan (DiscoverX)) EUB0000007b PIK3C2G; conditions: at 1 µM
[26] = target: T2, Sodium-dependent dopamine transporter; test: Selectivity interaction (GPCR panel (PDSP screen)) EUB0000741a SLC6A3
Interstitial collagenase = Interstitial collagenase (Homo sapiens, UniProt P03956); test: Selectivity interaction (MMPs panel (FRET assay)) EUB0000730a MMP1
[27] = target: Cyclin-dependent kinase-like 3 (Homo sapiens) (UniProt Q8IVW4); conditions: at 100 nM
Stromelysin-1 = Stromelysin-1 (Homo sapiens, UniProt P08254); test: Selectivity interaction (MMPs panel (FRET assay)) EUB0000730a MMP3
Aurora kinase A = Aurora kinase A (Homo sapiens, UniProt O14965); test: Selectivity interaction (Enzyme panel (Invitrogen)) EUB0000730a STK6
[28] = target: Cyclin-dependent kinase 3 (Homo sapiens) (UniProt Q00526); conditions: at 100 nM
[29] = target: Cyclin-dependent kinase 19 (Homo sapiens) (UniProt Q9BWU1); conditions: at 100 nM
[30] = target: 5'-AMP-activated protein kinase catalytic subunit alpha-1 (Homo sapiens, UniProt Q13131); test: Selectivity interaction (Enzyme panel (Invitrogen)) EUB0000730a PRKAA1
Neutrophil collagenase = Neutrophil collagenase (Homo sapiens, UniProt P22894); test: Selectivity interaction (MMPs panel (FRET assay)) EUB0000730a MMP8
[31] = target: cAMP-dependent protein kinase catalytic subunit alpha (Homo sapiens, UniProt P17612); test: Selectivity interaction (Enzyme panel (Invitrogen)) EUB0000730a PRKACA
D(1B) dopamine receptor [32] = target: T3, D(1B) dopamine receptor; conditions: at 10 µM
[33] = target: MAP kinase-activated protein kinase 2 (Homo sapiens, UniProt P49137); test: Selectivity interaction (Enzyme panel (Invitrogen)) EUB0000730a MAPKAPK2
D(1B) dopamine receptor [34] = target: T3, D(1B) dopamine receptor; test: Selectivity interaction (GPCR panel (PDSP screen)) EUB0000730a DRD5
[35] = target: Macrophage metalloelastase (Homo sapiens, UniProt P39900); test: Selectivity interaction (MMPs panel (FRET assay)) EUB0000730a MMP12
Matrilysin = target: T6, Matrilysin (Homo sapiens, UniProt P09237); test: Selectivity interaction (MMPs panel (FRET assay)) EUB0000730a MMP7
T6 sequence (P09237 whole entry): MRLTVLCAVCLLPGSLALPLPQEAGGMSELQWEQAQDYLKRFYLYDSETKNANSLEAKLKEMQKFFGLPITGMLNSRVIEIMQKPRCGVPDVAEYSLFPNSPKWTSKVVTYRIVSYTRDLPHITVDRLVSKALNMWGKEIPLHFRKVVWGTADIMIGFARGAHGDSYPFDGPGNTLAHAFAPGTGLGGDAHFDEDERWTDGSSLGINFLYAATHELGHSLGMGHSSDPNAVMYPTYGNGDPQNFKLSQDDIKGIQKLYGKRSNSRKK

T3 sequence (P21918 whole entry): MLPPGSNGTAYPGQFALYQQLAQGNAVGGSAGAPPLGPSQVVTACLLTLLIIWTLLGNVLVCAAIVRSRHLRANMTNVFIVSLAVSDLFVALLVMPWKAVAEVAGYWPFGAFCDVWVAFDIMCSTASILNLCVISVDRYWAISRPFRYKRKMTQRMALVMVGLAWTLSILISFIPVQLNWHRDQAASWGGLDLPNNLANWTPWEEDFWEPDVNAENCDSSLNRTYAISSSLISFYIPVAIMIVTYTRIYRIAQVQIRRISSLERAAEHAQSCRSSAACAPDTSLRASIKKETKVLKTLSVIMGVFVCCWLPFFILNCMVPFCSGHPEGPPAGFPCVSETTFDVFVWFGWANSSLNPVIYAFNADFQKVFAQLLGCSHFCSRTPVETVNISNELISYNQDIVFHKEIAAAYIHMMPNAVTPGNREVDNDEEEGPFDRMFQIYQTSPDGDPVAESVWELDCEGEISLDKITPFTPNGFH
T2 sequence (Q01959 whole entry): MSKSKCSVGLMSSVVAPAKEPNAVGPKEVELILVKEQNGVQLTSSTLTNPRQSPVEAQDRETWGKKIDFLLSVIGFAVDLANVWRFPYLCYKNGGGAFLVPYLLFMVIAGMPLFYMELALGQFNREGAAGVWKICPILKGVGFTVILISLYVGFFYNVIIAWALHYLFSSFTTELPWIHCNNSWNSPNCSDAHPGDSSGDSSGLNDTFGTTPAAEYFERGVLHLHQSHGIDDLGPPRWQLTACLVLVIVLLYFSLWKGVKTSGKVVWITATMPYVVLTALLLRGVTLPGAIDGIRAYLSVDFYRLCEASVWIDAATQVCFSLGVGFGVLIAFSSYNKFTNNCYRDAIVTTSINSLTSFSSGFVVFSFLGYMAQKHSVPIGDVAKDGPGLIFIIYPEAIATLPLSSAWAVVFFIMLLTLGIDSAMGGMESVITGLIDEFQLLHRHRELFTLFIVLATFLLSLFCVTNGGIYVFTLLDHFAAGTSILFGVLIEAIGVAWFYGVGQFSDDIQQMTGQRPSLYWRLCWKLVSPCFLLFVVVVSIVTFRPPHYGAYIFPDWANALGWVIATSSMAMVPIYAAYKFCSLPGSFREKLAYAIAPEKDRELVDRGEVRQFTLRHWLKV
Sequence of Serine/threonine-protein kinase PAK 2 (Homo sapiens) (Q13177 whole entry): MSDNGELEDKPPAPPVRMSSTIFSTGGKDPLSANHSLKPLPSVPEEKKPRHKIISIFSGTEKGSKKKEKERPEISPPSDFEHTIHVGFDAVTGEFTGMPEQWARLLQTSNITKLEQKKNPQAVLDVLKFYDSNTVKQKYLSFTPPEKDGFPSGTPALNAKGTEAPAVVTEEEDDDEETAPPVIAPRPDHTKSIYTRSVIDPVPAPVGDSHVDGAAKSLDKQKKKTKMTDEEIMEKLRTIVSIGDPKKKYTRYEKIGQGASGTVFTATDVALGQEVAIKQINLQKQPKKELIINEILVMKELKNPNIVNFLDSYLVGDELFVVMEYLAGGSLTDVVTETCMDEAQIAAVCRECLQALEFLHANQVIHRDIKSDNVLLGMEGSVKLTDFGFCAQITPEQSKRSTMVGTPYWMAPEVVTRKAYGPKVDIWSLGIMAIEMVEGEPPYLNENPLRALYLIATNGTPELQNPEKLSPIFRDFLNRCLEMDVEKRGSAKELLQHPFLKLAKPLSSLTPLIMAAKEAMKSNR
Sequence of Histamine H1 receptor (P35367 whole entry): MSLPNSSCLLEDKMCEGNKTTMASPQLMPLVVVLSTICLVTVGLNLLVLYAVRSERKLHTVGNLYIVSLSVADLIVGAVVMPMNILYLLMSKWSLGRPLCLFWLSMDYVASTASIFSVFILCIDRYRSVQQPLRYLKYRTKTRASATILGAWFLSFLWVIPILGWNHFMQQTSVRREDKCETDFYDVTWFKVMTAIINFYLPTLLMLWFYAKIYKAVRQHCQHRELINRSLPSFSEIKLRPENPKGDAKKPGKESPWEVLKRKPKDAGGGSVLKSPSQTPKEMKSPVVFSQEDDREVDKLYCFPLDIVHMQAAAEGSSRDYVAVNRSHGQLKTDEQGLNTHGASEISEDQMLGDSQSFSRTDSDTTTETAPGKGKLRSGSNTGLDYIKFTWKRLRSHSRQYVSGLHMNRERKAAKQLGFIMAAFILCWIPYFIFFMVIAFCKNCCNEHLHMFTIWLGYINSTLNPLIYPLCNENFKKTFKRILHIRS
Sequence of Interstitial collagenase (P03956 whole entry): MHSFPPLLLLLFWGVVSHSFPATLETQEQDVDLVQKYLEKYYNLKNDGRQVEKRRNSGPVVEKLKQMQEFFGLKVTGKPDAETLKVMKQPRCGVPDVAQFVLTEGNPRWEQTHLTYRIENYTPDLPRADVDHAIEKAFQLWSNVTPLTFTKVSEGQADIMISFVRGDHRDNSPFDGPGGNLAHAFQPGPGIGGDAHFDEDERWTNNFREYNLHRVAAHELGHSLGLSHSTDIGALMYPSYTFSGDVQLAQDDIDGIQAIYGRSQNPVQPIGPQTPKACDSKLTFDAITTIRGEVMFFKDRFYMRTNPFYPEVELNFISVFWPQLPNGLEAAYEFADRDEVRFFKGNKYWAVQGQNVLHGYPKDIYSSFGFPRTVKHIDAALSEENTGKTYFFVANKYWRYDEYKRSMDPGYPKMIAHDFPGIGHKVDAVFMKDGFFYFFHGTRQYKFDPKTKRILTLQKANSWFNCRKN
Sequence of 5'-AMP-activated protein kinase catalytic subunit alpha-1 (Q13131 whole entry): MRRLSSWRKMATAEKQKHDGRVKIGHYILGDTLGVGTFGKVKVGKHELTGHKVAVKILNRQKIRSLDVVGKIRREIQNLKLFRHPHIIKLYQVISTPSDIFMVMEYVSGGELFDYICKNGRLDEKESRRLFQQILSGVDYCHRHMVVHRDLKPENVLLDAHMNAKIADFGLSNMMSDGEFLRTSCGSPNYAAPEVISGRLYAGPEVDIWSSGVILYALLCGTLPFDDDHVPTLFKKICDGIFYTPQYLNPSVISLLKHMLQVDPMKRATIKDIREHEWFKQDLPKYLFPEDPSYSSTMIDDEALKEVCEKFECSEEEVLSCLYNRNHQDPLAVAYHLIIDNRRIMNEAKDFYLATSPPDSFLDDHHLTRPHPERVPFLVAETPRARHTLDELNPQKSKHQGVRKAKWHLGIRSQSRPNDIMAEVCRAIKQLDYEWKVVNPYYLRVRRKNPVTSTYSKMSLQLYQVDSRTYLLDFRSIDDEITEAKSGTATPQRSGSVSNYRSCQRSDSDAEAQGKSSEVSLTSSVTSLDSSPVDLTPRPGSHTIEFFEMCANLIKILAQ
Sequence of Stromelysin-1 (P08254 whole entry): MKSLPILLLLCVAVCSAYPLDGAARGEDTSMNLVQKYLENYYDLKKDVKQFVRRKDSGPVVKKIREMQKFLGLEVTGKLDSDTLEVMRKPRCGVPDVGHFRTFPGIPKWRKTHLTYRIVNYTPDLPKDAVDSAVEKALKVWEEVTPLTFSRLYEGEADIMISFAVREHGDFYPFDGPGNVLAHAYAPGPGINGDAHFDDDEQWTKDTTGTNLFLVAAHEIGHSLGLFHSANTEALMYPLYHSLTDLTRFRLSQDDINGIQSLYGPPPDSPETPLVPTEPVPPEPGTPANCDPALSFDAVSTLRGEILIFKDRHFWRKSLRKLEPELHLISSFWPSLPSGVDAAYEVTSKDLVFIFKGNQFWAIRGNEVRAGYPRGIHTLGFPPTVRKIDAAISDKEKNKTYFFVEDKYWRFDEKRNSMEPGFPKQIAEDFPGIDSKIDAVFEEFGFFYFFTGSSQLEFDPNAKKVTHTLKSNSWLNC
Sequence of Cyclin-dependent kinase 19 (Homo sapiens) (Q9BWU1 whole entry): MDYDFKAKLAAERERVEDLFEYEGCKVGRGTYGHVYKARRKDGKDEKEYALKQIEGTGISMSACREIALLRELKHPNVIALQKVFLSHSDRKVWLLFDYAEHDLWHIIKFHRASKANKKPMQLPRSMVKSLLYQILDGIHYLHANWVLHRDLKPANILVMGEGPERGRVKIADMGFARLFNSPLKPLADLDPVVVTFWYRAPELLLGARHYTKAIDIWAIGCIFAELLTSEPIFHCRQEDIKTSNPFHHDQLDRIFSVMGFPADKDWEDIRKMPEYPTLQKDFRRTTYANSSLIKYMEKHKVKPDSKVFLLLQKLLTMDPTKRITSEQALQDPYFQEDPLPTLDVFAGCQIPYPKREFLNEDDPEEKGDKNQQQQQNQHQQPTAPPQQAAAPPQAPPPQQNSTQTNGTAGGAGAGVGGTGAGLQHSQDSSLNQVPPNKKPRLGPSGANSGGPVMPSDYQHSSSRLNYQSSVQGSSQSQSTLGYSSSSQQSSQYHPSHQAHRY
Sequence of Dual specificity mitogen-activated protein kinase kinase 1 (Q02750 whole entry): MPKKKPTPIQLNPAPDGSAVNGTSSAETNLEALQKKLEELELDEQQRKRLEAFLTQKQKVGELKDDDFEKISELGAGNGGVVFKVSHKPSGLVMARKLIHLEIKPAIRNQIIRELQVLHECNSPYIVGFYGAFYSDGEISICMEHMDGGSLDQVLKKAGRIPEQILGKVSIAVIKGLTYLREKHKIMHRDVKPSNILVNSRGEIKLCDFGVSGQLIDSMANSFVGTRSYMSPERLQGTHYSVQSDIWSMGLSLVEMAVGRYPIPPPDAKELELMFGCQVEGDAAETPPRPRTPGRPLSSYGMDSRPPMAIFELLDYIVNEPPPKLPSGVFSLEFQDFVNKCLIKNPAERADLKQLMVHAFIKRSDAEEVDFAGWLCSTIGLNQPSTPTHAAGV
Sequence of Serine/threonine-protein kinase 38-like (Q9Y2H1 2-464 limits assumed): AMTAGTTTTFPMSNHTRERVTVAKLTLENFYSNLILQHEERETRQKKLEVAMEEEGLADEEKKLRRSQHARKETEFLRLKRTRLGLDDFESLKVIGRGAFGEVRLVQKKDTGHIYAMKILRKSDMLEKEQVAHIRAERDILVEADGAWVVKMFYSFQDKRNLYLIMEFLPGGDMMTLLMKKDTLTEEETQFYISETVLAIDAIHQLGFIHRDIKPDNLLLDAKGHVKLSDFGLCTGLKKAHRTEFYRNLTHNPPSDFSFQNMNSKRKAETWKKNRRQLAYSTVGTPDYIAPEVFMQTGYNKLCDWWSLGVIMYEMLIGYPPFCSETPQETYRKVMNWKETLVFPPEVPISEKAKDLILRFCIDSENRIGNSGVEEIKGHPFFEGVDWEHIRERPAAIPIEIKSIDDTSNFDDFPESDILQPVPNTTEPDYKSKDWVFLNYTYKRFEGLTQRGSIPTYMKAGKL

SMILES: O=c1nc(-c2ccccn2)sc2ccccc12 [BTZO-1]
- Ki [1]: 934 nM
- % of control [2]: 47%
- % of control [3]: 36%

SMILES: O=C(Nc1ccc(-n2nc(-c3cccnc3)cc2C(F)(F)F)cn1)c1ccc(-c2ccccc2)c(F)c1 [BI 2049]
- Ki [4]: > 10000 nM

SMILES: C[C@H](NC(=O)c1cnc2n1[C@](C)(Cc1ccc(C#N)cc1)C(=O)N2c1cc(Cl)c(F)c(Cl)c1)C(=O)NC1(c2ccccn2)CC1 [BI 1950]
- % of control [5]: 49%
- % of control [6]: 24%
- % of control [7]: 34%
- % of inhibition [8]: 26%
- % of inhibition [9]: 72%

SMILES: Cn1nc(C(=O)NCc2ccc(C(=O)O)cc2)cc1-c1ccc2[nH]ccc2c1 [BI 4395]
- % of control [10]: 33%
- % of control [11]: 23%
- Ki (D(1B) dopamine receptor [12]): > 10000 nM
- % of control [13]: 31%

SMILES: O=C(c1ccc(F)c(F)c1Nc1ccc(I)cc1F)N1CC(O)([C@@H]2CCCCN2)C1 [COBIMETINIB]
- IC50 [14]: 23 nM
- IC50 [15]: 31 nM

SMILES: CN([C@@H]1CCc2c(CC(=O)O)c3ccccc3n2C1)S(=O)(=O)c1ccc(F)cc1 [MK-7246]
- % of control [16]: 34%
- % of control [17]: 44%
- Ki [18]: 1110 nM

SMILES: O=C1NC(c2ccccn2)Sc2ccccc21 (stereo unspecified) [BTZO-4]
- Kd [19]: > 10000 nM
- % of control [20]: 0%
- % of inhibition [21]: 32.4%
- % of inhibition (Histamine H1 receptor): 49.9%
- % of control [22]: 42%
- Kd [23]: > 10000 nM

SMILES: CN(C)C(=O)/C(C#N)=C/c1ccc(-c2nc3cnc4c(ccn4C)c3n2C2CCCCC2)o1
- IC50 [24]: 170 nM
- % of control [25]: 82%

SMILES: CC(C)(C)OC(=O)N1CCCC1CNC1CCC(c2cc(F)ccc2F)(S(=O)(=O)c2ccc(Cl)cc2)CC1 (stereo unspecified) [GSI-NC]
- Ki [26]: > 10000 nM

SMILES: CCOC(=O)c1cc2cc(-c3cc(C(=O)NCc4ccc(C(=O)O)cc4)nn3C)ccc2[nH]1 [BI 4394]
- IC50 (Interstitial collagenase): > 22000 nM
- % of control [27]: 0%
- IC50 (Stromelysin-1): > 22000 nM
- IC50 (Aurora kinase A): 1300 nM
- % of control [28]: 43%
- % of control [29]: 0%
- IC50 [30]: 1900 nM
- IC50 (Neutrophil collagenase): > 22000 nM
- IC50 [31]: 1600 nM
- % of inhibition (D(1B) dopamine receptor [32]): 60%
- IC50 [33]: 1100 nM
- Ki (D(1B) dopamine receptor [34]): > 10000 nM
- IC50 [35]: > 22000 nM
- IC50 (Matrilysin): > 22000 nM
